Assay results taken from BindingDB's records for doi:10.3109/14756366.2011.643303 (Ondokuz Mayis University, 2013).
pKi: −log10 of the molar value.

How the values were obtained:
Experiment in all cases: Esterase Activity Assay
Details in all cases: pH 7.4
Carbonic anhydrase 4 = Carbonic anhydrase 4 (Homo sapiens, UniProt P22748)
Carbonic anhydrase 3 = target: T1, Carbonic anhydrase 3 (Bos taurus, UniProt Q3SZX4)
T1 sequence (Q3SZX4 whole entry): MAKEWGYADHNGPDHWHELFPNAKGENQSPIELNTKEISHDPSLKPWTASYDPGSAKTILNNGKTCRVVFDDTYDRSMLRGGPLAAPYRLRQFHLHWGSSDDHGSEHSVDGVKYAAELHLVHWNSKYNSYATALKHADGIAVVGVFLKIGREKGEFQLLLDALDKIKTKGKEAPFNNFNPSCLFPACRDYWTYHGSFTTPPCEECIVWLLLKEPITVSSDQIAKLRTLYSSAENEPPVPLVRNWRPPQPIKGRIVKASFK

Carbonic anhydrase 1 = Carbonic anhydrase 1 (Homo sapiens, UniProt P00915)
Chain of Carbonic anhydrase 1 (P00915 whole entry): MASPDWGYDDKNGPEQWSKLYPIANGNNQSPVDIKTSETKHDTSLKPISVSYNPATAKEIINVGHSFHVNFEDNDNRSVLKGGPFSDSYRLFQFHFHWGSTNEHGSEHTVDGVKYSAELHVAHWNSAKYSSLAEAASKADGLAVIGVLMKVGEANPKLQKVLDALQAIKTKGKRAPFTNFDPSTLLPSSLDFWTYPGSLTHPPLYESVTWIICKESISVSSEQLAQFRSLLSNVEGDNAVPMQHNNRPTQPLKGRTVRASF

Carbonic anhydrase 2 = Carbonic anhydrase 2 (Homo sapiens, UniProt P00918)

Chain of Carbonic anhydrase 4 (P22748 whole entry): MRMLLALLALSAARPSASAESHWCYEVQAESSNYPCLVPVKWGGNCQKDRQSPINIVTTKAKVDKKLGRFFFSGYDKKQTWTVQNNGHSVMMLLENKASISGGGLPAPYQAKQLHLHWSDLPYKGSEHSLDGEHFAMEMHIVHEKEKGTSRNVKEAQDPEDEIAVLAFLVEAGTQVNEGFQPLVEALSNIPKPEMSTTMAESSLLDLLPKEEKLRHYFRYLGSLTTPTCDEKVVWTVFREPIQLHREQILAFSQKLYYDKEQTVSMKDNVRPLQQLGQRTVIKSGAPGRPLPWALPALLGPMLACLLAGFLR

Compound | pKi (Carbonic anhydrase 4) | pKi (Carbonic anhydrase 3) | pKi (Carbonic anhydrase 1) | pKi (Carbonic anhydrase 2)
O=c1c(O)c(-c2ccc(O)cc2O)oc2cc(O)cc(O)c12 [2-(2,4-dihydroxyphenyl)-3,5,7-trihydroxychromen-4-one] | 4.80 | 4.67 | 4.89 | 5.36
Oc1cc(O)c2c(c1)O[C@H](c1ccc(O)c(O)c1)[C@@H](O)C2 [(+)-Catechin] | 5.25 | 5.66 | 5.17 | –
O=c1cc(-c2ccc(O)cc2)oc2cc(O)cc(O)c12 [Naringenin, 18] | 5.04 | 4.94 | 5.39 | 5.57
Oc1ccccc1 | 4.84 | 5.34 | 4.76 | 5.13
O=c1c(O)c(-c2ccc(O)c(O)c2)oc2cc(O)cc(O)c12 [2-(3,4-dihydroxyphenyl)-3,5,7-trihydroxy-chromone;hydrate] | 4.86 | 5.04 | 5.44 | 5.62
Oc1ccccc1O [1,2-Dihydroxybenzene, XI] | – | 5.19 | – | 4.94
Oc1cccc(O)c1 | 3.20 | 3.66 | 3.08 | 5.03
O=c1cc(-c2ccc(O)c(O)c2)oc2cc(O)cc(O)c12 [2-(3,4-dihydroxyphenyl)-5,7-dihydroxy-4H-chromen-4-one] | 5.36 | 5.27 | 5.66 | 6.13
